2 compounds from patent publication US20210213010A1, “TLR7/8 AGONISTS AND LIPOSOME COMPOSITIONS” (Torque Therapeutics, Inc., priority 2018, published 2021) can be followed below.

One may read the EC50 as the concentration that produces a half-maximal response.

Values joined by “and” are separate entries in the source; they are usually repeats but may differ in a detail not shown here. Equal entries are not always repeated. “Also recorded” adds a separate entry of the source.

For one data set, the target named is T1, mTLR7 (Mus musculus, UniProt P58681).
T1 construct: host or cells: HEK-Blue (HEK293-derived) reporter cells
T1 sequence (P58681 27-1050): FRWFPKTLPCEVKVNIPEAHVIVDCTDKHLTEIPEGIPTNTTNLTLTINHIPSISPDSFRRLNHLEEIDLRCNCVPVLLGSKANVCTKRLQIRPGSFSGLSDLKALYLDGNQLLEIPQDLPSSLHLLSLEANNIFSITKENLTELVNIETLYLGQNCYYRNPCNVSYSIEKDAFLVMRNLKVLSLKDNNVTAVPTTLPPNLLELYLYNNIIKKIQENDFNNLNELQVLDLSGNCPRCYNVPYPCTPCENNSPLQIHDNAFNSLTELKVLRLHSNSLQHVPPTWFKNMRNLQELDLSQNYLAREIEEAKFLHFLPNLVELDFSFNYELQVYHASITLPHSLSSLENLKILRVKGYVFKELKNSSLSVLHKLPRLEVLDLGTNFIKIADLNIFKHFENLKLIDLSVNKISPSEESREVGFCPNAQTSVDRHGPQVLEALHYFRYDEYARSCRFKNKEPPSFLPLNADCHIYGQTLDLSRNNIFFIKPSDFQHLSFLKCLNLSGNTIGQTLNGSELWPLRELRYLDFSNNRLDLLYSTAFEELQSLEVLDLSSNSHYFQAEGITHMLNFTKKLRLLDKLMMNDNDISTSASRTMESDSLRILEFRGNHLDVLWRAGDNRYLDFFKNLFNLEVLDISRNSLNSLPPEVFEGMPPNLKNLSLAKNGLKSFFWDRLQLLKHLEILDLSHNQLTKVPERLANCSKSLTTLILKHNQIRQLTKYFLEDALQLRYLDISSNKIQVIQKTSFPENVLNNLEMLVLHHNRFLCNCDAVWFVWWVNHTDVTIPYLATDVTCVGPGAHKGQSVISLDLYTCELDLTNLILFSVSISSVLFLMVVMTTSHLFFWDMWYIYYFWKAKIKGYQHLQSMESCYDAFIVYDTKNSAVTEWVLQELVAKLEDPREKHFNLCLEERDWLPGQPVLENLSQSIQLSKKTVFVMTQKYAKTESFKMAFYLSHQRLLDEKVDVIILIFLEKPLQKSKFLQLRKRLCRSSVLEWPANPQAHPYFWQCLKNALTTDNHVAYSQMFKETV
Briefly: NF-κB induction in HEK-Blue mTLR7 reporter cells. The format is cell-based. An excerpt: This example describes the general procedure used to assess the compounds' potency to induce NF-κB expression in human embryonic kidney (HEK) cells. The transcription factor NF-κB is expressed upon stimulation of TLR7/8 and is commonly used for quantifying TLR7/8 agonist potencies in reporter cell assays. Conversely, we used HEK-Blue mTLR-7 cells to evaluate the potencies of the synthesized derivatives, as previously reported (Shukla et al, J. Med. Chem. (2010), 53, 4450-4465).
HEK-Blue TLR7 assays were carried out using HEK-Blue™ mTLR7 cells (Invivogen, Toulouse, France, Cat. #hkb-mtlr7). The assays were carried out according to the protocol from Invivogen. TLR expressing cells were cultured in DMEM high glucose (4.5 g/L) supplemented with 10% (v/v) fetal bovine serum (FBS) and 1% (v/v) penicillin-streptomycin (P/S) to 50 U/ml penicillin and […] streptomycin. On the day of the study, the cells were seeded in a 96-well plate (ThermoFisher Scientific, Roskilde, Denmark) with 20 μL imidazoquinoline TLR7/8 agonist solutions per well at varying concentrations by adding 180 μL cell suspension, made by suspending cells to 0.22×10^6 cells per mL in HEK-Blue™ Detection medium (Invivogen, Cat. #hb-det2) added Blasticidin (10 μg/ml) and Zeocin™ (100 μg/ml), leading to a final concentration of 40×10^3 cells per well in triplicates. Cells were incubated with the imidazoquinoline TLR7/8 agonists, formulated in liposomes or dissolved in PBS, at 37° C. with 5% CO2 for 16 h. The response was quantified spectrophotometrically at 655 nm and was normalized to the signal from a blank sample (DMSO dilution) run in parallel.

The subject of the next data set is RAW-Blue cells. Briefly: NF-κB induction in RAW-Blue reporter cells (RAW 264.7 macrophages, SEAP). The class given is cell-based. Particulars: for EC50: RAW-Blue, sigmoidal 4PL fitting, 24 h; for Potency in the RAW-Blue cell assay: compared with R848. An excerpt: This example describes the general procedure used to assess the compounds' potency to induce NF-κB expression in RAW 264.7 macrophages cells that stably express secreted embryonic alkaline phosphatase (SEAP) upon induction of NF-κB. RAW-Blue™ reporter cells are commonly used for quantifying TLR7/8 agonist potencies in reporter cell assays. Conversely, we used RAW-Blue™ cells to evaluate the potencies of the synthesized derivatives, as previously reported^1. ^1 Ryu et al, J. Am. Chem. Soc. (2014), 136, 10823-10825
RAW 264.7 assays were carried out using RAW-Blue™ cells and QUANTI-Blue™ detection solution (Invivogen, Toulouse, France, at. #raw-sp and rep-qbs respectively). The assays carried out according to the protocol from Invivogen. RAW 264.7 macrophages were cultured in DMEM high glucose (4.5 g/L) supplemented with 10% (v/v) FBS, 1% (v/v) P/S, and Normocin™ (100 μg/ml). On the day of the study, the cells were seeded in a 96-well plate (ThermoFisher Scientific, Roskilde, Denmark) with 20 μL TLR7/8 agonist solutions per well at varying concentrations by adding 180 μL cell suspension, made by suspending cells to 0.55×10^6 cells per mL in the prepared cell medium added Zeocin™ (200 μg/ml), leading to a final concentration of 100×10^3 cells per well in triplicates. Cells were incubated with the TLR7/8 agonists, diluted from 10 mM DMSO stocks in PBS, at 37° C. with 5% CO2 for 24 h for SEAP production. 50 μL SEAP containing cell supernatant from each well was added 150 μL QUANTI-Blue™ detection solution and was incubated at 37° C. for 3-6 h. The resulting response was quantified spectrophotometrically at 640 nm and was normalized to the signal from a blank sample (DMSO dilution) run in parallel.
Half maximal effective concentration (EC50) values were determined from sigmoidal 4PL fittings from the resulting dose-response curves in GraphPad Prism.

A short description of data set [1]: Cryo-TEM of remote loaded liposomes (intraliposomal precipitation). Particulars: formulation F3, drug to lipid ratio 0.1. The class given is physicochemical. The procedure: CryoTEM samples of 3 μL of liposome solution was placed on a lacy carbon 300 mesh copper TEM grid, blotted and plunge frozen in liquid ethane using a FEI Vitrobot Mark IV. Samples were imaged using a FEI Tecnai G2 20 TWIN transmission electron microscope operated at 200 keV in low dose mode with a FEI High-Sensitive (HS) 4 k×4 k Eagle camera.

The nature of data set [2]: Remote loading efficiency of small molecules into liposomes (PD-10 size exclusion, HPLC). The format is physicochemical. Particulars: for Remote loading efficiency 1 h (%) / Remote loading efficiency 3 h (%): mean (SD), n = 2. In short, it runs like this: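 A lyophilized small-molecule powder (modified TLR agonist) was combined with liposome formulation at the desired drug/lipid ratio and stirred at elevated temperature. At 1 h and 3 h, 100 μL of mixture plus 900 μL buffer (25 mM HEPES, 10 vol % sucrose, pH 7.4) went onto a PD-10 size exclusion column. Ten 1 mL fractions were collected, and HPLC quantified compound in the liposome fractions as a percentage of the amount applied.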

Where [3] appears, read: formulation F3, drug/lipid ratio 0.10, 1 h.
Setting [4] is: formulation F3, drug/lipid ratio 0.10, 3 h.
Where [5] appears, read: formulation F3, drug/lipid ratio 0.25, 1 h.
Setting [6] is: formulation F3, drug/lipid ratio 0.25, 3 h.

For `CCCCc1nc2c(N)nc3ccccc3c2n1Cc1ccc(CN)cc1` [MK130, 1-(4-(aminomethyl)benzyl)-2-butyl-1H-imidazo[4,5-c]quinolin-4-amine], the “TLR7 agonist activity (NF-κB induction)” value at mTLR7 (liposomal, formulation F3) is “potencies much higher than R848”. Moreover, a half-maximal response in the data set on RAW-Blue cells (EC50) required 30 nM. For the same compound, the “Potency in the RAW-Blue cell assay” value in the data set on RAW-Blue cells is given as “the most potent compounds”. For the same compound, in data set [1], the “Intraliposomal precipitation (Cryo-TEM)” value is “slight precipitation”. The “Remote loading efficiency 1 h (%)” value in data set [2] (setting [3]) is 93.8 (5.8) %; in data set [2] (setting [5]) it was 45.9 (1.9) %; in data set [2] (formulation F3, drug/lipid ratio 0.50, 1 h), 19.7 (0.4) %. Also, the “Remote loading efficiency 3 h (%)” value in data set [2] (setting [4]) is 96.7 (1.3) %; in data set [2] (setting [6]), 48.9 (2.1) %; in data set [2] (formulation F3, drug/lipid ratio 0.50, 3 h), 20% and 19.5 (1.1) %.

`CCCCc1nc2c(N)nc3ccccc3c2n1Cc1ccc(CNC(=O)[C@@H](N)Cc2ccccc2)cc1` [MK138, (S)-2-amino-N-(4-((4-amino-2-butyl-1H-imidazo[4,5-c]quinolin-1-yl)methyl)benzyl)-3-phenylpropanamide]: the “TLR7 agonist activity (NF-κB induction)” value is “a higher response than both MK130 and R848 at 1 μM; also recorded: only little activity was observed at concentrations <0.32 μM” on mTLR7 (free compounds, 16 h); “potencies much higher than R848” at mTLR7 (liposomal, formulation F3). The compound also had an EC50 in the data set on RAW-Blue cells of 40 nM. For the same compound, in the data set on RAW-Blue cells, the “Potency in the RAW-Blue cell assay” value is listed as “greater potencies than R848”. For the same compound, the “Intraliposomal precipitation (Cryo-TEM)” value in data set [1] was “precipitated to form rod-like crystals”. Moreover, the “Remote loading efficiency 1 h (%)” value in data set [2] (setting [3]) was 82.5 (1.2) % and 82.6 (1.2) %; in data set [2] (setting [5]), 5% and 5.1 (0.1) %; in data set [2] (formulation F4 (250 mM ammonium sulfate), drug/lipid ratio 0.10, 1 h), 96.5 (3.3) %; in data set [2] (formulation F4 (250 mM ammonium sulfate), drug/lipid ratio 0.25, 1 h), 93% and 93.0 (5.7) %. Also, the “Remote loading efficiency 3 h (%)” value is 86% and 86.2 (0.2) % and 86.2 (0.1) % in data set [2] (setting [4]); 0.5 (0.1) % in data set [2] (setting [6]); 100% and 100.0 (0.1) % in data set [2] (formulation F4 (250 mM ammonium sulfate), drug/lipid ratio 0.10, 3 h); 96.5 (0.7) % in data set [2] (formulation F4 (250 mM ammonium sulfate), drug/lipid ratio 0.25, 3 h). Also, the Loading efficiency in data set [2] (formulation F3, drug/lipid ratio 0.1, time not specified (within 3 h)) was at most 90%.
